# Values of other authors in patent US6503506B1, “Nutrient therapy for immuno-compromised patients” (Millenium Biotechnologies, Inc., priority 2001, dated 2003).
# Tests used:
# [1] = tested on: HIV
# [2] = tested on: mitochondrial DNA; settings: patients on long-term therapy
compound,measurement,setting,value
"COC1=C(OC)C(=O)C(C/C=C(\C)CC/C=C(\C)CC/C=C(\C)CC/C=C(\C)CC/C=C(\C)CC/C=C(\C)CC/C=C(\C)CC/C=C(\C)CC/C=C(\C)CCC=C(C)C)=C(C)C1=O [COQ10, Coenzyme Q10]",T4/T8 ratios of lymphocytes,"HIV patients, oral administration",positive increase in T4/T8 rations
same,IgG and T4-lymphocytes,"human studies, administered orally",increases IgG and T4-lymphocytes
superoxide dismutase [SOD],levels of the virus core protein,[1]; indicator of virus presence in the cells,reduced the levels of the virus core protein
same,spread of HIV through infected cells,[1]; infected white blood cells from patients with HIV,slowed down the spread of HIV through the infected cells
"Cc1cn([C@H]2C[C@H](N=[N+]=[N-])[C@@H](CO)O2)c(=O)[nH]c1=O [zidovudine (AZT), zidovudine]",levels of mitochondrial DNA in muscle,[2],depletes levels of mitochondrial DNA in muscle
